NC(=O)N/N=C/c1ccc([N+](=O)[O-])o1
solubility (mole fraction)
Conditions | in DMF | in acetone | in acetonitrile | in ethanol | in ethyl acetate | in formamide | in isopropanol | in methanol | in n-propanol | in water
278.15 K | 0.0194 | 0.000291 | 7.32e-05 | 5.89e-05 | 7.69e-05 | 0.00131 | 2.66e-05 | 0.000137 | 3.6e-05 | 4.23e-06
283.15 K | 0.0202 | 0.000339 | 9.44e-05 | 7.3e-05 | 8.31e-05 | 0.00154 | 3.27e-05 | 0.000168 | 4.98e-05 | 5.75e-06
288.15 K | 0.0207 | 0.00038 | 0.000116 | 8.98e-05 | 9.59e-05 | 0.00178 | 4.03e-05 | 0.000198 | 5.29e-05 | 8.03e-06
293.15 K | 0.0223 | 0.000435 | 0.000146 | 0.000112 | 0.000116 | 0.00205 | 5.09e-05 | 0.000238 | 6.62e-05 | 1.07e-05
298.15 K | 0.023 | 0.000501 | 0.000168 | 0.000136 | 0.00013 | 0.0024 | 6.47e-05 | 0.000284 | 8.61e-05 | 1.27e-05
303.15 K | 0.0255 | 0.00056 | 0.000204 | 0.000165 | 0.000151 | 0.00273 | 8.79e-05 | 0.000338 | 0.000108 | 1.53e-05
308.15 K | 0.0265 | 0.000641 | 0.000246 | 0.000203 | 0.000172 | 0.00313 | 0.000116 | 0.000404 | 0.000139 | 2.05e-05
313.15 K | 0.0279 | 0.000749 | 0.000293 | 0.000247 | 0.000202 | 0.00359 | 0.000151 | 0.000478 | 0.000164 | 2.68e-05

From BigSolDB 2.1
